Measurements taken from PubChem BioAssay (NCI).
Where “and” joins values, the source holds several entries; their conditions need not be identical. Identical values can stand only once.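 These data come from cells grown in 96-well plates and exposed to compound for 48 hours at five concentrations. GI50 marks 50% less growth. TGI denotes the concentration required for complete inhibition of growth.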

Legend:
Assay in all cases: DTP human tumour cell line panel, 48 h
COLO 205 colon = test system: COLO 205 colon
HOP-62 NSCLC = test system: HOP-62 NSCLC
HT29 colon = test system: HT29 colon
IGROV1 ovarian = test system: IGROV1 ovarian
M14 melanoma = test system: M14 melanoma
NCI-H522 lung = test system: NCI-H522 lung
RPMI-8226 leukemia = test system: RPMI-8226 leukemia
RXF 393 renal = test system: RXF 393 renal
T-47D breast = test system: T-47D breast
TK-10 renal = test system: TK-10 renal

SMILES | GI50 (COLO 205 colon) [µM] | TGI (COLO 205 colon) | GI50 (HOP-62 NSCLC) [µM] | TGI (HOP-62 NSCLC) | GI50 (HT29 colon) [µM] | TGI (HT29 colon) | GI50 (IGROV1 ovarian) [µM] | TGI (IGROV1 ovarian) | GI50 (M14 melanoma) [µM] | TGI (M14 melanoma) | GI50 (NCI-H522 lung) [µM] | TGI (NCI-H522 lung) | GI50 (RPMI-8226 leukemia) [µM] | TGI (RPMI-8226 leukemia) | GI50 (RXF 393 renal) [µM] | TGI (RXF 393 renal) | GI50 (T-47D breast) [µM] | TGI (T-47D breast) | GI50 (TK-10 renal) [µM] | TGI (TK-10 renal)
CC(C)(C)c1cc(/C=N/NC(=O)c2ccccc2NC(=O)c2cccs2)c(O)c(C(C)(C)C)c1 | 0.412 | 22.2 µM | 0.779 | 21.6 µM | 0.798 | > 100 µM | 0.683 | > 100 µM | 0.459 | 16 µM | 1.84 | 30.4 µM | 1.05 | 14 µM | 3.02 | 47.4 µM | 1.85 | 29.4 µM | 0.994 | 18.1 µM
COC(=O)c1ccc(/C=C(\c2ccc([N+](=O)[O-])o2)S(=O)(=O)c2ccc(NC(C)=O)cc2)o1 | – | 7.56 µM | – | 33.4 µM | – | 5.76 µM | – | 28.4 µM | – | 15.4 µM | – | 5.02 µM | – | 3.03 µM | – | 25.7 µM | – | > 100 µM | – | 16.2 µM
COc1c(/C=C/C=O)cc2c(c1OC)OCO2 | – | > 100 µM | – | 73.7 µM | – | 69.5 µM | – | 82.4 µM | – | 56.2 µM | – | > 100 µM | – | 43.4 µM | – | > 100 µM | – | > 100 µM | – | > 100 µM
N#CC1=C(N)NC(=S)NC12Nc1ccccc1S2 (configuration not stated) | 24.8 | 82.6 µM | – | – | 31 | > 100 µM | 23.3 | > 100 µM | 40.1 | > 100 µM | 21.3 | 70.5 µM | 22.2 | > 100 µM | 33.8 | > 100 µM | 29.9 | > 100 µM | 41.5 | > 100 µM
O=C(O)c1cc(=O)cc(C(=O)O)o1 | > 100 | > 100 µM | > 100 | > 100 µM | > 100 | > 100 µM | > 100 | > 100 µM | – | – | > 100 | > 100 µM | > 100 | > 100 µM | > 100 | > 100 µM | > 100 | > 100 µM | > 100 | > 100 µM
COc1cc(N2C(=O)[C@H](c3ccccc3)C2c2ccc(SC)cc2)cc(OC)c1OC (some centres not stated) | 0.0367 | 1.46 µM | 0.0788 | > 100 µM | 0.0324 | 1.76 µM | 0.0432 | > 100 µM | – | – | 0.0232 | 0.0734 µM | 0.0416 | 7.68 µM | 0.038 | > 100 µM | > 100 | > 100 µM | 0.638 | > 100 µM
CC(C)(C)CC(C)(C)c1ccc(O)c(Cc2ccc(Cl)cc2Cl)c1 | 1.77 | 3.15 µM | 1.42 | 2.72 µM | 1.67 | 3.03 µM | 1.7 | 3.12 µM | 1.61 | 3.08 µM | 1.37 | 2.7 µM | 1.24 | 3.66 µM | 1.16 | 2.41 µM | 1.35 | 2.69 µM | 1.54 | 2.87 µM
O=Nc1c(-c2c(O)[nH]c3cc(Br)ccc23)[nH]c2ccccc12 | 1.35 | 2.84 µM | – | – | 1.67 | 3.44 µM | 0.14 | 2.1 µM | 1.76 | 3.48 µM | 1.1 | 4.54 µM | 2.04 | > 22.5 µM | 0.858 | 3.42 µM | 1.98 | 5.48 µM | 0.954 | 5.12 µM
COc1cc(/C=C2\CCC/C(=C\c3ccc(O)c(OC)c3)C2=O)ccc1O | 3.61 | 24.4 µM and 13.6 µM | 1.79 | 8.32 µM and 3.95 µM | 2.31 | 18.8 µM and 5.68 µM | 1.85 | 8.94 µM and 4.53 µM | 1.92 | 6.79 µM and 5.61 µM | 1.12 | 3.23 µM and 2.66 µM | 0.397 | 10.8 µM and 3.59 µM | 1.43 | 6.17 µM and 2.94 µM | 1.91 | 12.2 µM and 7.41 µM | 2.8 | 37.2 µM and 11.6 µM
O=c1cnnc(N/N=C/c2ccccc2O)[nH]1 | 0.33 | > 100 µM | 6.01 | 53.7 µM | 0.646 | > 100 µM | 3.2 | 16.7 µM | 0.449 | 19.2 µM | 1.26 | > 30.5 µM | 1.23 | > 72.9 µM | 5.16 | 37.7 µM | 0.0656 | > 100 µM | 8.26 | > 100 µM
CC1=C(C)C(=O)O[C@@H]([C@](C)(O)[C@]2(O)CC[C@@]3(O)[C@@H]4C[C@H](O)[C@]5(O)[C@@H](O)C=CC(=O)[C@]5(C)[C@H]4CC[C@]23C)C1 | – | > 100 µM | – | > 100 µM | – | > 100 µM | – | > 100 µM | – | > 100 µM | – | > 100 µM | – | > 100 µM | – | > 100 µM | – | > 100 µM | – | > 100 µM
COc1ccc(NC2=C(I)C(=O)c3ncccc3C2=O)cc1 | 1.68 | 3.47 µM | 0.457 | 1.87 µM | 3.07 | 10.2 µM | 0.417 | 1.93 µM | 1.29 | 2.9 µM | 0.827 | 2.53 µM | 1.17 | 3.85 µM | 1.41 | 2.82 µM | 1.59 | 4.17 µM | 2.14 | 3.96 µM
Oc1c(Cl)cc(Cl)cc1/C=N/Nc1nnc(N/N=C/c2cc(Cl)cc(Cl)c2O)c2ccccc12 | 0.433 | > 100 µM | 0.388 | > 28.8 µM | 0.595 | > 100 µM | 0.419 | > 100 µM | 0.434 | > 100 µM | 0.366 | 6.7 µM | 0.405 | > 100 µM | 0.278 | 0.798 µM | 0.506 | > 100 µM | 0.704 | > 100 µM
